The record followed here is US11077120B2, “Prostaglandin receptor EP2 antagonists, derivatives, compositions, and uses related thereto” (Emory University, priority 2014, dated 2021).

The conditions of series [1]: pH 7.4.
For series [2] the following is noted: mouse, in vivo.
The target in a further series is T1, human EP2 receptors (Homo sapiens, UniProt P43116).
T1 construct: expressed in transfected cells
The series can be described thus: cell-based cAMP TR-FRET assay, rightward shift of PGE2 concentration response curve (Schild KB), EP2. The following applies: Schild regression analysis. In outline:
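C6G cells overexpressing human EP2 were pre-incubated 0.5–1 h at RT in HBSS with 20 μM rolipram, then exposed to 1 μM compound for 10 min before increasing PGE2 for 40 min at RT. cAMP was read by TR-FRET (cAMP-d2/anti-cAMP cryptate, F665/F590). KB is the antagonist concentration giving a twofold rightward shift of the PGE2 curve.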

The nature of another series: physchem. The following applies: pH 7.4, aqueous buffer, kinetic from dmso stock.
Series [3] in a line: liver microsomal stability, mouse.
Series [4] can be described thus: liver microsomal stability, human.
For the next series, the system named is C6-glioma cells. The following applies: read-out: Cytotoxicity (CC50); Table 4.
The nature of series [5]: aqueous solubility by nephelometry. The following applies: Table 3; PBS buffer (pH 7.4) with 1% DMSO by nephelometry.

≈ marks a conversion by molar mass, not a printed value. Read-outs that look alike come from different tables or passages of the source.

T1 sequence (P43116 whole entry): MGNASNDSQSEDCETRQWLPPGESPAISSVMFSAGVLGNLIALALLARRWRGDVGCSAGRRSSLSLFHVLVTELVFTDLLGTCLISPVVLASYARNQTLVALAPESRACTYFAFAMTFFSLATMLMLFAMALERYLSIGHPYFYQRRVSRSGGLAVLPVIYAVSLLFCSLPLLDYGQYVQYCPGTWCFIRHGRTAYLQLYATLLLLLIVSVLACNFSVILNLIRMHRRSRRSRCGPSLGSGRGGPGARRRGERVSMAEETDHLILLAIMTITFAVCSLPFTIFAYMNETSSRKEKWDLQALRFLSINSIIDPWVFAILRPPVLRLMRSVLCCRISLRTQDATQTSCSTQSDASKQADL
Description for C6-glioma cells: CC50 are average one measurement run in triplicate.
Several of compounds were examined against EP4 and IP receptors at single concentration of 10 μM.

Consider `Cc1cc2ccccc2n1CCNC(=O)/C=C/c1ccc(OCCO)c(OCCO)c1` [Compound 16a, (E)-3-(3,4-bis(2-hydroxyethoxy)phenyl)-N-(2-(2-methyl-1H-indol-1-yl)ethyl)acrylamide], for which, in series [1], the Solubility is 153 µM (≈ 64.9 µg/mL). In addition, in series [2] (ip, 5 mg/kg), the C-max was determined as 1510 ± 142 ng/mL and the “T1/2 (plasma)” value is listed as 1.49 h. Besides, in series [2] (po, 10 mg/kg), the C-max is given as 128 ± 23 ng/mL and the “T1/2 (plasma)” value is listed as 1.44 h. For the same compound, the “mechanism of antagonism of EP2” value at human EP2 receptors was “competitive”.

For the compound `O=C(/C=C/c1ccc(OCCO)c(OCCO)c1)NCCn1c(C(F)(F)F)cc2ccccc21` [Compound 16b], the Solubility (in “physchem”; in series [1]) was 67 µM (≈ 32.1 µg/mL) throughout.

For `COc1cc(/C=C/C(=O)NCCn2c(C)cc3ccccc32)cc(OC)c1OC` [Compound 15a], the results for the “% of Parent Compound Remaining at 60 min vs. T = 0 min, Mouse Liver Microsomes” value in series [3] (1 μM) and in series [3] (10 μM) were 0.2% and 4.8%, respectively. In series [3] (at 1 μM concentration), the “% remaining at 60 minutes in mouse liver microsomes” value came out at 0.2%. Moreover, the “% of Parent Compound Remaining at 60 min vs. T = 0 min, Human Liver Microsomes” value is on record as 0.1% in series [4] (1 μM) and 10.6% in series [4] (10 μM). In addition, the half-maximal cytotoxic concentration (CC50) in the series on C6-glioma cells was 172 µM. In series [5], this compound returned a Solubility of 45 µM (≈ 17.8 µg/mL).
